Assay results taken from patent publication US8598207B2, “Compositions containing opioid antagonists” (Adolor Corporation, priority 2004, dated 2013).
Like-named read-outs stand apart in the source and are kept apart here.

Experiments:
[1] = Blood:plasma distribution ratio; type: in vitro ADME; conditions: blood and plasma
Solubility in water = type: physicochemical

blood plasma ratio [1] | Solubility in water (Solubility in water; dihydrate) | SMILES | Solubility in water (Solubility in water; listed as compound of formula (II), dihydrate) | Solubility in water (Solubility in water)
0.68 | extremely low solubility in water | C[C@H]1CN(C[C@H](Cc2ccccc2)C(=O)NCC(=O)O)CC[C@@]1(C)c1cccc(O)c1 [Alvimopan, [[2(S)-[[4(R)-(3-hydroxyphenyl)-3(R),4-dimethyl-1-piperidinyl]methyl]-1-oxo-3-phenylpropyl]amino]acetic acid dihydrate] | low solubility in water except at low or high pH conditions | –
– | – | C[C@H]1CN(C[C@H](Cc2ccccc2)C(=O)O)CC[C@@]1(C)c1cccc(O)c1.O [active metabolite, (αS,3R,4R)-4-(3-hydroxyphenyl)-3,4-dimethyl-α-(phenylmethyl)-1-piperidinepropanoic acid monohydrate] | – | extremely low solubility in water
